Reference: patent US20130178413A1, “HCV NS3 PROTEASE INHIBITORS” (priority 2010, published 2013)
Like-named read-outs stand apart in the source and are kept apart here.

How the values were obtained:
[1] = biological target: NS3/4A protease gt 1b (Hepatitis C virus genotype 1b, UniProt P26663); assay: HCV NS3 protease time-resolved fluorescence (TRF) assay, NS3/4A inhibitory activity (Ki), gt 1b; type: biochemical; conditions: genotype 1b NS3/4A; read-out: Enzyme Activity gt 1b Ki
Description: (§1) The HCV NS3 protease inhibitory activity of the present compounds may be tested using assays known in the art. One such assay is HCV NS3 protease time-resolved fluorescence (TRF) assay as described below and in International Patent Application Publication WO2006/102087. Other examples of such assays are described in e.g., International Patent Application Publication WO2005/046712. HCV NS3 protease inhibitors, such as those described herein have a Ki less than 50 μM, such as less than 10 μM, and less than 100 nM. Ki is determined by an NS3 protease assay. The assay is performed in a final volume of 100 μl in assay buffer containing 50 mM HEPES, pH 7.5, 150 mM NaCl, 15% glycerol, 0.15% TRITON X-100, 10 mM DTT, and 0.1% PEG 8000. NS3 protease is pre-incubated with various concentrations of inhibitors in DMSO for 30 minutes. The reaction is initiated by adding the TRF peptide substrate (final concentration 100 nM). NS3 mediated hydrolysis of the substrate is quenched after 1 hour at room temperature with 100 μl of 500 mM MES, pH 5.5. Product fluorescence is detected using either a VICTOR V2 or FUSION fluorophotometer (Perkin Elmer Life and Analytical Sciences) with excitation at 340 nm and emission at 615 nm with a 400 μs delay. Testing concentrations of different enzyme forms are selected to result in a signal to background ratio (S/B) of 10-30. IC50 values are derived using a standard four-parameter fit to the data. Ki values are derived from IC50 values using the following formula,
(§2) IC50=Ki(1+[S]/KM), Eqn (1),
(§3) where [S] is the concentration of substrate peptide in the reaction and KM is the Michaelis constant. See P. Gallinari et al., 38 BIOCHEM. 5620-32 (1999); P. Gallinari et al., 72 J. VIROL. 6758-69 (1998); M. Taliani et al., 240 ANAL. BIOCHEM. 60-67 (1996).
(§4) One such assay is HCV NS3 protease time-resolved fluorescence (TRF) assay as described below and in Mao et al., Anal Biochem. 373:1-8, 2008 and International Patent Application Publication WO 2006/102087. A NS3 protease assay can be performed, for example, in a final volume of 100 μl assay buffer containing 50 mM HEPES, pH 7.5, 150 mM NaCl, 15% glycerol, 0.15% TRITON X-100, 10 mM DTT, and 0.1% PEG 8000. NS3 and NS4A protease is pre-incubated with various concentrations of inhibitors in DMSO for 30 minutes. The reaction is initiated by adding the TRF peptide substrate (final concentration 100 nM). NS3 mediated hydrolysis of the substrate is quenched after 1 hour at room temperature with 100 μl of 500 mM MES, pH 5.5. Product fluorescence is detected using either a VICTOR V2 or FUSION fluorophotometer (Perkin Elmer Life and Analytical Sciences) with excitation at 340 nm and emission at 615 nm with a 400 μs delay. Testing concentrations of different enzyme forms are selected to result in a signal to background ratio (S/B) of 10-30. IC50 values are derived using a standard four-parameter fit to the data. Ki values are derived from IC50 values using the following formula,
as §3, with “(1996); Mao et al., Analytical Biochemistry 373: 1-8, 2008. Measuring Compound Inhibitory Potency (Replicon EC50 (nM))” for “(1996).”

[2] = biological target: NS3/4A protease gt 1b A156V (Hepatitis C virus genotype 1b, UniProt P26663, A1182V); assay: HCV NS3 protease time-resolved fluorescence (TRF) assay, NS3/4A inhibitory activity (Ki), gt 1b A156V mutant; type: biochemical, hepatitis C virus (HCV)
Description: as §1, §2, §3, §4
as §3, with “(1996); Mao et al., Analytical Biochemistry 373: 1-8, 2008. Measuring Compound Inhibitory Potency (Replicon EC50 (nM))” for “(1996).”

[3] = biological target: NS3/4A protease gt 3a (Hepatitis C virus genotype 3a, UniProt Q81258); assay: HCV NS3 protease time-resolved fluorescence (TRF) assay, NS3/4A inhibitory activity (Ki), gt 3a; type: biochemical; conditions: genotype 3a NS3/4A; read-out: Enzyme Activity gt 3a Ki
Description: as §1, §2, §3, §4
as §3, with “(1996); Mao et al., Analytical Biochemistry 373: 1-8, 2008. Measuring Compound Inhibitory Potency (Replicon EC50 (nM))” for “(1996).”

[4] = test system: gt 1b Replicon; assay: HCV replicon assay, compound inhibitory potency (Replicon EC50); type: cell-based; conditions: Hepatitis C virus, GT1B
Description: Measurement of inhibition by compounds was performed using the HCV replicon system. Several different replicons encoding different HCV genotypes or mutations were used. In addition, potency measurements were made using different formats of the replicon assay, including different ways of measurements and different plating formats. See Jan M. Vrolijk et al., A replicons-based bioassay for the measurement of interferons in patients with chronic hepatitis C, 110 J. VIROLOGICAL METHODS 201 (2003); Steven S. Carroll et al., Inhibition of Hepatitis C Virus RNA Replication by 2′-Modified Nucleoside Analogs, 278(14) J. BIOLOGICAL CHEMISTRY 11979 (2003). However, the underlying principles are common to all of these determinations, and are outlined below.
Stable neomycin phosphotransferase encoding replicon-harboring cell lines were used, so all cell lines were maintained under G418 selection prior to the assay. In some cases the cell lines encoded a luciferase:Neor fusion and could be assayed either directly by determination of RNA copy number, or indirectly through measurement of the luciferase activity.
To initiate an assay, replicon cells were plated in the presence of a dilution series of test compound in the absence of G418. Typically, the assays were performed in a 96-well plate format for manual operation, or a 384 well plate in an automated assay. Replicon cells and compound were incubated for 24-48 hours, depending on the assay. At the end of the assay, cells are washed free of media and compound and then lysed. For direct quantitation, RNA levels were measured by ^32P-probe hybridization and protection, or in a TAQMAN based assay and normalized to cellular cyclophilin A RNA levels. In some cases, luciferase activity was measured using a conventional luciferase assay. In all cases EC50 determinations were calculated as a percent of a DMSO control by fitting the data to a four parameter fit function.

[5] = 10% Fetal Bovine Serum, read-out: gt 1b Replicon EC50 10% FBS
[6] = 50% Normal Human Serum, read-out: gt 1b Replicon EC50 50% NHS

Row | Compound | Ki [1] | Ki [2] | Ki [3] | EC50 [4, 5] | EC50 [4, 6]
1 | C=C[C@@H]1C[C@]1(NC(=O)[C@@H]1C[C@@H]2CN1C(=O)[C@H](C1CCCC1)NC(=O)O[C@]1(C)C[C@H]1CCCCCc1nc3ccccc3nc1O2)C(=O)NS(=O)(=O)C1(C)CC1 [Example I-29, (1aR,5S,8S,10R,22aR)-5-cyclopentyl-N-[(1R,2S)-2-ethenyl-1-{[(1-methylcyclopropyl)sulfonyl]carbamoyl}cyclopropyl]-1a-methyl-3,6-dioxo-1,1a,3,4,5,6,9,10,18,19, 20,21,22,22a-tetradecahydro-8H-7,10-methanocyclo propa[18,19][1,10,3,6] dioxadiazacyclonona decino[11,12-b]quinoxaline-8-carboxamide] | 0.04 nM | 1.7 nM | 3.1 nM | 3 nM | 9 nM
2 | CC[C@@H]1C[C@]1(NC(=O)[C@@H]1C[C@@H]2CN1C(=O)[C@H](C1CCCC1)NC(=O)O[C@]1(C)C[C@H]1CC/C=C/Cn1c(nc3cc(C)ccc3c1=O)O2)C(=O)NS(=O)(=O)C1CC1 [Example I-31, (1aR,5S,8S,10R,20E,23aR)-5-cyclopentyl-N-{(1R,2R)-1-[(cyclopropylsulfonyl)carbamoyl]-2-ethylcyclopropyl}-1a,14-dimethyl-3,6,17-trioxo-1,1a,3,4,5,6,9,10,19,22,23,23a-dodecahydro-8H,17H-7,10-methanocyclo propa[18,19][1,10,3,6, 12]dioxatriazacyclo nonadecino[11,12-b]quinazoline-8-carboxamide] | 0.1 nM | 13.3 nM | 5.3 nM | 4 nM | 10 nM
3 | C=C[C@@H]1C[C@]1(NC(=O)[C@@H]1C[C@@H]2CN1C(=O)[C@H](C(C)(C)C)NC(=O)O[C@]1(C)C[C@H]1CCC/C=C/c1cccc3c1CN(C3)C(=O)O2)C(=O)NS(=O)(=O)C1(C)CC1 [Example I-32, (1aR,5S,8S,10R,19E,23aR)-5-tert-butyl-N-[(1R,2S)-2-ethenyl-1-{[(1-methylcyclopropyl)sulfonyl]carbamoyl}cyclopropyl]-1a-methyl-3,6,12-trioxo-1a,3,4,5,6,9, 10,14,21,22,23,23a-dodecahydro-1H,8H-7,10:13,15-dimethanocyclopropa [n][4,13,2,8,11]benzo dioxatriazacyclo docosine-8(12H)-carboxamide] | 0.03 nM | 1 nM | 1.8 nM | 1 nM | 11 nM
4 | C=C[C@@H]1C[C@]1(NC(=O)[C@@H]1C[C@@H]2CN1C(=O)[C@H](C(C)(C)C)NC(=O)O[C@]1(C)C[C@H]1CCCCCc1nc3ccccc3nc1O2)C(=O)NS(=O)(=O)C1CC1 [Example I-8, (1aR,5S,8S,10R,22aR)-5-tert-butyl-N-{(1R,2S)-1-[(cyclopropylsulfonyl)carbamoyl]-2-ethenylcyclopropyl}-1a-methyl-3,6-dioxo-1,1a,3,4,5,6,9,10,18,19, 20,21,22,22a-tetra decahydro-8H-7,10-methanocyclopropa[18, 19][1,10,3,6]dioxatriaza cyclononadecino[11,12-b]quinoxaline-8-carboxamide] | 0.02 nM | 11.5 nM | 0.5 nM | 2 nM | 6 nM
5 | C=C[C@@H]1C[C@]1(NC(=O)[C@@H]1C[C@@H]2CN1C(=O)[C@H](C(C)(C)C)NC(=O)O[C@]1(C)C[C@H]1CCCCCc1cccc3c1CN(C3)C(=O)O2)C(=O)NS(=O)(=O)C1CC1 [Example I-6, (1aR,5S,8S,10R,23aR)-5-tert-butyl-N-{(1R,2S)-1-[(cyclopropylsulfonyl)carbamoyl]-2-ethenylcyclopropyl}-1a-methyl-3,6,12-trioxo-1a,3,4,5,6,9,10, 14,19,20,21,22,23,23a-tetradecahydro-1H,8H-7,10:13,15-dimethano cyclopropa [n][4,13,2,8,11] benzodioxatriaza cyclodocosine-8(12H)-carboxamide] | 0.02 nM | 0.3 nM | 2.9 nM | 3 nM | 54 nM
6 | C=C[C@@H]1C[C@]1(NC(=O)[C@@H]1C[C@@H]2CN1C(=O)[C@H](C(C)(C)C)NC(=O)O[C@]1(C)C[C@H]1CCC/C=C/c1cccc3c1CN(C3)C(=O)O2)C(=O)NS(=O)(=O)C1CC1 [Example I-5, (1aR,5S8S,10R,19E,23aR)-5-tert-butyl-N-{(1R,2S)-1-[(cyclopropylsulfonyl)carbamoyl]-2-ethenylcyclopropyl}-1a-methyl-3,6,12-trioxo-1a,3,4,5,6,9,10,14,21,22,23,23a-dodecahydro-1H,8H-7,10:13,15-dimethanocycloproa[n][4,13,2,8,11]benzodioxatriazacyclodocosine-8(12H)-carboxamide] | 0.02 nM | 1.3 nM | 1 nM | 3 nM | 22 nM
7 | C=C[C@@H]1C[C@]1(NC(=O)[C@@H]1C[C@@H]2CN1C(=O)[C@H](C1CCCC1)NC(=O)O[C@]1(C)C[C@H]1CC/C=C/Cn1c(nc3cc(C)ccc3c1=O)O2)C(=O)NS(=O)(=O)C1CC1 [Example I-23, (1aR,5S,8S,10R,20E,23aR)-5-cyclopentyl-N-{(1R,2S)-1-[(cyclopropylsulfonyl)carbamoyl]-2-ethenylcyclopropyl}-1a,14-dimethyl-3,6,17-trioxo-1,1a,3,4,5,6,9,10,19,22,23,23a-dodecahydro-8H,17H-7,10-methano cyclopropa[18,19][1, 10,3,6,12]dioxatriaza cyclononadecino[11,12-b]quinazoline-8-carboxamide] | 0.02 nM | 1.2 nM | 1 nM | 2 nM | 6 nM
